Results: article PMC3760305, “Mimicking Protein–Protein Interactions through Peptide–Peptide Interactions: HIV-1 gp120 and CXCR4” (Frontiers in Immunology, 2013)
“Also recorded” adds a separate entry of the source.

What was measured:
[1] = target: T1, gp120HxBc2 (Human immunodeficiency virus type 1 group M subtype B, UniProt P04578); experiment: SPR: binding of gp120 to captured CX4-M1; parameters: species or system HIV-1
T1 construct: gp120MN, gp120ADA, and gp120HxBc2 from Immune Technology; purchased Immune Technology
Protocol: (§2) All measurements were performed using a Biacore X100 instrument in conjunction with the Biotin CAPture Kit (both from GE Healthcare). Sensor chip CAP was hybridized with a 1:10 dilution of CAPture reagent (streptavidin conjugate) in running buffer. […] For dehybridization, a regeneration solution of 6 M guanidinium chloride and 250 mM sodium hydroxide was used. HBS-N buffer (10 mM HEPES, 150 mM sodium chloride, pH 7.4) containing 0.05% Tween 20, as well as 100 mM (V3 loop peptides) or 2.5 mM (gp120) magnesium chloride, was used as running buffer. Measurement and data evaluation was performed using Biacore X100 Control Software (Version 2.0) and Biacore X100 Evaluation Software (Version 2.0), respectively.

[2] = target: T2, gp120MN (Human immunodeficiency virus type 1 group M subtype B, UniProt P05877); experiment: SPR: binding of gp120 to captured CX4-M1; parameters: species or system HIV-1
T2 construct: gp120MN, gp120ADA, and gp120HxBc2 from Immune Technology; purchased Immune Technology
Protocol: as §2

[3] = target: T1, gp120HxBc2; format: binding, HIV-1; conditions: direct ELISA; variants 2.5 μM; gp120 8.3 nM in the presence of sCD4; relative to CX4-M1
Protocol: (§1) High binding microtiter plates (Immulon 2HB) were coated overnight at 4°C with streptavidin (4 μg/mL) in 0.1 M sodium carbonate buffer pH 9.5. Unspecific binding was blocked with 1% BSA in 0.1 M phosphate buffer pH 7.2, 200 μL/well for 1 h. All following steps were performed using 0.1 M phosphate buffer pH 7.2 containing 1% BSA (ELISA with V3 loop peptides) and 0.1% BSA (ELISA with gp120), respectively, as well as 0.01% Tween 20. Plates were incubated with 100 μL CX4-M1 variants (0.5 μM for binding to V3 loop peptides, 2.5 μM for binding to gp120), or biotin alone as a blank, for 2 h. Plates were then incubated for 3 h with fluoresceinylated V3 loop peptides (250 or 100 nM), or gp120 (8.3 nM, either with or without 8.3 nM sCD4). V3 loop peptides were detected using 100 μL/well mouse anti-fluorescein-HRP conjugate from antibodies online (3 μg/mL) for 1 h. Gp120 was detected using a two antibody system. Sheep anti-gp120 (D7324) from Aalto Bio Reagents (0.2 μg/mL) was added for 1 h, followed by a 1 h incubation with rabbit anti-sheep-HRP conjugate from Dianova (3 μg/mL), 100 μL/well. Plates were washed four times with 0.01% Tween 20 in 0.1 M phosphate buffer pH 7.2 (300 μL/well) after each incubation step. Plates were developed with 100 μL/well OPD (1 mg/mL) in the presence of 0.03% H2O2 for approximately 1.5 min (V3 loop peptide detection), or 3.5 min (gp120 detection) in the dark. After the reaction was stopped with 50 μL/well 2 M H2SO4, absorbances were read at 492 nm and corrected for the blank (sample with biotin instead of CX4-M1). All data points present means of at least duplicates.

[4] = tested on: V3 loop peptide V3HxBc2; experiment: Direct ELISA: CX4-M1 variants binding to V3 loop peptide; parameters: species or system HIV-1; conditions: variants 0.5 μM, fluoresceinylated V3HxBc2, relative to CX4-M1
Protocol: as §1

[5] = target: T3, CXCR4 mimetic peptide CX4-M1 (Homo sapiens, UniProt P61073); experiment: Direct ELISA: fluoresceinylated V3 loop peptides binding to CX4-M1; conditions: for effect of alanine substitution in V3HxBc2 on binding to CX4-M1: direct ELISA, relative to V3HxBc2; for binding of V3 loop peptide to CX4-M1 (direct ELISA): CX4-M1 0.5 μM on streptavidin plate, fluoresceinylated V3 loop peptides 250 or 100 nM, 3 h, absorbance 492 nm
Protocol: as §1

[6] = target: T3, CXCR4 mimetic peptide CX4-M1; experiment: SPR: binding of V3 loop peptides to captured CX4-M1; conditions: SPR Biacore X100; CX4-M1 (2 μM) bound to streptavidin; V3 loop peptides 5–0.3 μM; HBS-N pH 7.4, 0.05% Tween 20, 100 mM MgCl2
Protocol: as §2

CC[C@H](C)[C@@H]1NC(=O)[C@H](Cc2ccc(O)cc2)NC(=O)[C@H](CCCNC(=N)N)NC(=O)[C@H](CC(=O)O)NC(=O)CCCCCNC(=O)CCNC(=O)CCCCCNC(=O)[C@H](CCCCN)NC(=O)[C@@H](NC(=O)[C@H](CC(C)C)NC(=O)[C@H](Cc2ccccc2)NC(=O)[C@H](CC(N)=O)NC(=O)CNC(=O)[C@H](Cc2ccccc2)NC(=O)[C@H](Cc2ccc(O)cc2)NC(=O)[C@H](Cc2c[nH]c3ccccc23)NC(=O)[C@H](CC(N)=O)NC(=O)[C@H](C)NC(=O)[C@@H](NC(=O)[C@H](C)NC(=O)[C@H](CC(=O)O)NC(C)=O)C(C)C)CSSC[C@@H](C(=O)N[C@@H](CC(=O)O)C(=O)N[C@@H](CCCNC(=N)N)C(=O)N[C@@H](Cc2ccccc2)C(=O)N[C@@H](Cc2ccc(O)cc2)C(=O)N2CCC[C@H]2C(=O)N[C@@H](CC(N)=O)C(=O)N[C@@H](CC(=O)O)C(=O)N[C@@H](CC(C)C)C(=O)N[C@@H](Cc2c[nH]c3ccccc23)C(=O)N[C@H](C(=O)NCCCCCC(=O)NCCC(=O)NCCCCCC(=O)N[C@@H](CC(=O)O)C(=O)N[C@@H](CO)C(=O)N[C@@H](Cc2ccccc2)C(=O)N[C@H](C(=O)N[C@@H](CC(C)C)C(=O)N[C@@H](CC(C)C)C(=O)N[C@@H](CCC(=O)O)C(=O)N[C@H](C(=O)N[C@H](C(=O)N[C@@H](CCCCN)C(=O)N[C@@H](CCC(N)=O)C(=O)NCC(=O)N[C@@H](CO)C(=O)N[C@@H](CCC(=O)O)C(=O)N[C@@H](Cc2ccccc2)C(=O)N[C@@H](CCC(=O)O)C(=O)N[C@@H](CC(N)=O)C(=O)N[C@H](C(=O)N[C@H](C(=O)N[C@@H](Cc2c[nH]cn2)C(=O)N[C@@H](CCCCN)C(=O)NCCCCCC(=O)N[C@@H](CCCCNC(=O)CCCC[C@@H]2SC[C@@H]3NC(=O)N[C@@H]32)C(N)=O)C(C)C)[C@@H](C)O)[C@@H](C)CC)[C@@H](C)CC)[C@@H](C)CC)C(C)C)NC1=O [CX4-M1]
Kd [1]: 200 nM
Kd [2]: 700 nM

Ac-ECL1-X-B-X-DRAICDRFYPNDLWV-X-B-X-ECL3-X-K(Bio)-NH2 (disulfide) [CX4-M1 Y184A, alanine substitution variant of ECL2 of CX4-M1]
effect of alanine substitution in ECL2 of CX4-M1 on binding to gp120HxBc2 [3]: attenuated binding
effect of alanine substitution in ECL2 of CX4-M1 on binding to V3HxBc2 [4]: enhancement of binding

Ac-ECL1-X-B-X-DRYICDRFAPNDLWV-X-B-X-ECL3-X-K(Bio)-NH2 (disulfide) [CX4-M1 Y190A, alanine substitution variant of ECL2 of CX4-M1]
effect of alanine substitution in ECL2 of CX4-M1 on binding to gp120HxBc2 [3]: attenuated binding
effect of alanine substitution in ECL2 of CX4-M1 on binding to V3HxBc2 [4]: enhancement of binding

Ac-ECL1-X-B-X-DRYICDRFYPNDAWV-X-B-X-ECL3-X-K(Bio)-NH2 (disulfide) [CX4-M1 L194A, alanine substitution variant of ECL2 of CX4-M1]
effect of alanine substitution in ECL2 of CX4-M1 on binding to gp120HxBc2 [3]: negative effect on the affinity; also recorded: attenuated binding
effect of alanine substitution in ECL2 of CX4-M1 on binding to V3HxBc2 [4]: enhancement of binding

Ac-ECL1-X-B-X-DRYICDRFYPNDLWA-X-B-X-ECL3-X-K(Bio)-NH2 (disulfide) [CX4-M1 V196A, alanine substitution variant of ECL2 of CX4-M1]
effect of alanine substitution in ECL2 of CX4-M1 on binding to V3HxBc2 [4]: enhancement of binding

Fluo-X-G-X-CTRPNNNTRKRARIQRGPGRAFVTIGKIGNMRQAHC-NH2 (disulfide) [V3HxBc2 I307A, alanine scan variant of V3HxBc2]
effect of alanine substitution in V3HxBc2 on binding to CX4-M1 [5]: strongly diminished binding

Fluo-X-G-X-CTRPNNNTRKRIAIQRGPGRAFVTIGKIGNMRQAHC-NH2 (disulfide) [V3HxBc2 R308A, alanine scan variant of V3HxBc2]
effect of alanine substitution in V3HxBc2 on binding to CX4-M1 [5]: strongly diminished binding

Fluo-X-G-X-CTRPNNNTRKRIRAQRGPGRAFVTIGKIGNMRQAHC-NH2 (disulfide) [V3HxBc2 I309A, alanine scan variant of V3HxBc2]
effect of alanine substitution in V3HxBc2 on binding to CX4-M1 [5]: strongly diminished binding

Fluo-X-G-X-CTRPNNNTRKRIRIQRGPGRAAVTIGKIGNMRQAHC-NH2 (disulfide) [V3HxBc2 F317A, alanine scan variant of V3HxBc2]
effect of alanine substitution in V3HxBc2 on binding to CX4-M1 [5]: strongly diminished binding

Fluo-X-G-X-CTRPNNNTRKRIRIQRGPGRAFATIGKIGNMRQAHC-NH2 (disulfide) [V3HxBc2 V318A, alanine scan variant of V3HxBc2]
effect of alanine substitution in V3HxBc2 on binding to CX4-M1 [5]: strongly diminished binding

Fluo-X-G-X-CTRPNNNTRKRIRIQRGPGRAFVTAGKIGNMRQAHC-NH2 (disulfide) [V3HxBc2 I320A, alanine scan variant of V3HxBc2]
effect of alanine substitution in V3HxBc2 on binding to CX4-M1 [5]: strongly diminished binding

Fluo-X-G-X-CTRPNNNTRKSIHI–GPGRAFYTTGEIIGDIRQAHC-NH2 (disulfide) [Peptide V3ADA, fluoresceinylated peptide presenting the V3 loop of gp120 from R5-tropic HIV-1 ADA]
KD (V3 loop peptide) to CX4-M1 [6]: No binding

Fluo-X-G-X-CTRPNNNTRK––QRGPGRA–-GKIGNMRQAHC–NH2 (disulfide) [V3HxBc2 Δbeta]
binding of V3 loop peptide to CX4-M1 (direct ELISA) [5]: complete loss of binding

Fluo-X-G-X––––-C^dRIRIQRGPGRAFVTIC^d–––––-NH2 (disulfide) [V3HxBc2 turn/beta, truncated variant of V3HxBc2 presenting the turn region and the two beta strands]
binding of V3 loop peptide to CX4-M1 (direct ELISA) [5]: retained some of the affinity

Fluo-X-G-X––––––-C^dQRGPGRAC^d–––––––-NH2 (disulfide) [V3HxBc2 turn, truncated variant of V3HxBc2 presenting only the turn region]
binding of V3 loop peptide to CX4-M1 (direct ELISA) [5]: complete loss of binding

Yc-X-G-X-CTRPNNNTRKSIHI–GPGRALYTTGEIIGDIRQAHC-NH2 (disulfide) [Peptide V3BAL, fluoresceinylated peptide presenting the V3 loop of gp120 from R5-tropic HIV-1 BAL]
KD (V3 loop peptide) to CX4-M1 [6]: No binding
